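Compound exposure: 48 hours, 5 concentrations, 96-well plates. GI50 = concentration required for 50% inhibition of growth.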 The source made the active and inactive calls. Rule as the data show it: active = GI50 up to about 1.1 µM and inactive = higher.
Key:
Experiment in all cases: NCI-60 cell line screen, 48 h
[1] = tested on: NCI-H226
[2] = tested on: A498
[3] = tested on: MCF7
[4] = tested on: SW-620
[5] = tested on: SNB-75
[6] = tested on: RXF 393
[7] = tested on: HCC 2998
[8] = tested on: Malme-3M
[9] = tested on: SF-295
[10] = tested on: SF-268
[11] = tested on: HT-29
[12] = tested on: MDA-MB-435
[13] = tested on: HCT-116
[14] = tested on: SN12C
[15] = tested on: NCI-H460
[16] = tested on: U-251
[17] = tested on: NCI-H522
[18] = tested on: LOX IMVI
[19] = tested on: OVCAR-8
[20] = tested on: T47D

Compound | GI50 [1] | GI50 [2] | GI50 [3] | GI50 [4] | GI50 [5] | GI50 [6] | GI50 [7] | GI50 [8] | GI50 [9] | GI50 [10] | GI50 [11] | GI50 [12] | GI50 [13] | GI50 [14] | GI50 [15] | GI50 [16] | GI50 [17] | GI50 [18] | GI50 [19] | GI50 [20]
NCCC(=O)N[C@H](Cc1cc(O)c(O)c(SCC(NC(=O)CC[C@H](N)C(=O)O)C(=O)NCC(=O)O)c1)C(=O)O (stereo partly drawn) | > 50 µM (inactive) | > 50 µM (inactive) | > 50 µM (inactive) | > 50 µM (inactive) | > 50 µM (inactive) | > 50 µM (inactive) | > 50 µM (inactive) | > 50 µM (inactive) | > 50 µM (inactive) | > 50 µM (inactive) | > 50 µM (inactive) | > 50 µM (inactive) | > 50 µM (inactive) | > 50 µM (inactive) | > 50 µM (inactive) | > 50 µM (inactive) | > 50 µM (inactive) | – | – | –
CC(=O)CCC1(C(=O)OCC(C)C)CCCC1=O (stereo not drawn) | > 100 µM (inactive) | – | – | > 100 µM (inactive) | > 100 µM (inactive) | > 100 µM (inactive) | – | > 100 µM (inactive) | > 100 µM (inactive) | > 100 µM (inactive) | > 100 µM (inactive) | > 100 µM (inactive) | > 100 µM (inactive) | > 100 µM (inactive) | > 100 µM (inactive) | > 100 µM (inactive) | > 100 µM (inactive) | > 100 µM (inactive) | > 100 µM (inactive) | > 100 µM (inactive)
C=C1C[C@H]2C=Nc3cc(OCCCOc4cc5c(cc4OC)C(=O)N4CC(=C)C[C@H]4C=N5)c(OC)cc3C(=O)N2C1 [SJG-136] | 0.0122 µM (active) | 0.0146 µM (active) | 0.012 µM (active) | 0.0123 µM (active) | < 0.01 µM (active) | < 0.0107 µM (active) | 0.0126 µM (active) | 0.0109 µM (active) | < 0.01 µM (active) | 0.000832 µM (active) | 0.0147 µM (active) | – | 0.0103 µM (active) | < 0.01 µM (active) | < 0.01 µM (active) | < 0.01 µM (active) | 0.0014 µM (active) | < 0.01 µM (active) | 0.0119 µM (active) | < 0.01 µM (active)
N#Cc1c(-c2ccccc2)cc(Nc2cccc(C(F)(F)F)c2)n2c1nc1ccccc12 | 0.687 µM (active) | 1.64 µM (inactive) | – | 3.05 µM (inactive) | 1.82 µM (inactive) | 1.99 µM (inactive) | – | 1.27 µM (inactive) | 1.7 µM (inactive) | 1.29 µM (inactive) | 1.16 µM (inactive) | 2.01 µM (inactive) | 0.471 µM (active) | 0.519 µM (active) | 0.766 µM (active) | 0.611 µM (active) | 0.245 µM (active) | 1.2 µM (inactive) | 1.01 µM (active) | 0.764 µM (active)
Cc1ccc2nc(N/N=C/c3ccc(C)s3)cc(C)c2c1 | 10.1 µM (inactive) | – | 6.79 µM (inactive) | 6.1 µM (inactive) | > 10 µM (inactive) | 13.3 µM (inactive) | 4.69 µM (inactive) | 12.8 µM (inactive) | 7.94 µM (inactive) | 11.6 µM (inactive) | 3.51 µM (inactive) | 7.31 µM (inactive) | 3.7 µM (inactive) | 12.7 µM (inactive) | – | 9.51 µM (inactive) | 4.52 µM (inactive) | 4.53 µM (inactive) | 12.9 µM (inactive) | 7.91 µM (inactive)
NNC(=O)c1nnn(N)c1S | > 100 µM (inactive) | > 100 µM (inactive) | – | > 100 µM (inactive) | > 100 µM (inactive) | > 100 µM (inactive) | > 100 µM (inactive) | > 100 µM (inactive) | > 100 µM (inactive) | > 100 µM (inactive) | > 100 µM (inactive) | > 100 µM (inactive) | > 100 µM (inactive) | > 100 µM (inactive) | > 100 µM (inactive) | > 100 µM (inactive) | > 100 µM (inactive) | 79.6 µM (inactive) | > 100 µM (inactive) | > 100 µM (inactive)
Cc1cc(Cl)ccc1NC(=O)/C(Cl)=C(/Cl)C(=O)O | – | – | 21.4 µM (inactive) | 21 µM (inactive) | 29.9 µM (inactive) | 19.6 µM (inactive) | 17.9 µM (inactive) | – | > 100 µM (inactive) | 52.8 µM (inactive) | 22.9 µM (inactive) | 20.6 µM (inactive) | 19 µM (inactive) | 18.1 µM (inactive) | > 100 µM (inactive) | 19 µM (inactive) | 15.4 µM (inactive) | 19.9 µM (inactive) | 17.7 µM (inactive) | 22.8 µM (inactive)
CSC(SC)=C1C(=O)NN=C1C | > 100 µM (inactive) | – | > 100 µM (inactive) | > 100 µM (inactive) | – | > 100 µM (inactive) | > 100 µM (inactive) | > 100 µM (inactive) | > 100 µM (inactive) | > 100 µM (inactive) | > 100 µM (inactive) | > 100 µM (inactive) | > 100 µM (inactive) | > 100 µM (inactive) | > 100 µM (inactive) | > 100 µM (inactive) | 47 µM (inactive) | > 100 µM (inactive) | – | > 100 µM (inactive)
O=C(c1ccccc1)n1[nH]c(=O)n(-c2ccc(Cl)cc2)c1=O | > 100 µM (inactive) | – | > 100 µM (inactive) | > 100 µM (inactive) | > 100 µM (inactive) | > 100 µM (inactive) | > 100 µM (inactive) | > 100 µM (inactive) | > 100 µM (inactive) | > 100 µM (inactive) | > 100 µM (inactive) | > 100 µM (inactive) | > 100 µM (inactive) | > 100 µM (inactive) | > 100 µM (inactive) | > 100 µM (inactive) | – | > 100 µM (inactive) | > 100 µM (inactive) | > 100 µM (inactive)
O=C1NC(=N/c2ccccc2)/C(=N\c2ccccc2)N1c1ccccc1 | 16.9 µM (inactive) | 17.2 µM (inactive) | – | 16.5 µM (inactive) | 16.3 µM (inactive) | 15 µM (inactive) | 16.9 µM (inactive) | 17.4 µM (inactive) | 15.8 µM (inactive) | 17.9 µM (inactive) | 16 µM (inactive) | 14.2 µM (inactive) | 17.7 µM (inactive) | 16.4 µM (inactive) | 16.5 µM (inactive) | 15.6 µM (inactive) | 1.7 µM (inactive) | 16.3 µM (inactive) | 15.8 µM (inactive) | 15.1 µM (inactive)
COC(=O)/C(C#N)=C1\NC(=O)CC(c2ccccc2)C1C#N (stereo not drawn) | > 100 µM (inactive) | – | > 100 µM (inactive) | > 100 µM (inactive) | > 100 µM (inactive) | > 100 µM (inactive) | > 100 µM (inactive) | > 100 µM (inactive) | > 100 µM (inactive) | > 100 µM (inactive) | > 100 µM (inactive) | – | > 100 µM (inactive) | > 100 µM (inactive) | > 100 µM (inactive) | – | > 100 µM (inactive) | > 100 µM (inactive) | > 100 µM (inactive) | > 100 µM (inactive)
O=C(Oc1c(Br)cc(Br)cc1C(=O)Oc1ccccc1)C(=O)Oc1c(Br)cc(Br)cc1C(=O)Oc1ccccc1 | 16 µM (inactive) | – | 26.7 µM (inactive) | 19.8 µM (inactive) | – | 12.9 µM (inactive) | 31 µM (inactive) | 20.9 µM (inactive) | 31 µM (inactive) | 29 µM (inactive) | 32.7 µM (inactive) | 10.1 µM (inactive) | 14.4 µM (inactive) | 30.3 µM (inactive) | > 100 µM (inactive) | 13.1 µM (inactive) | 14.4 µM (inactive) | – | 30.8 µM (inactive) | 27.1 µM (inactive)
COc1ccccc1Cn1c2c(c3cc(O)ccc31)C(=O)c1ccccc1C2=O | 21.6 µM (inactive) | 93.8 µM (inactive) | 10.1 µM (inactive) | 79.4 µM (inactive) | 19.2 µM (inactive) | 2.6 µM (inactive) | – | > 100 µM (inactive) | 11.2 µM (inactive) | 19.7 µM (inactive) | > 100 µM (inactive) | 84.3 µM (inactive) | 23.8 µM (inactive) | 22.8 µM (inactive) | 26.2 µM (inactive) | 16 µM (inactive) | – | 12.4 µM (inactive) | 11.7 µM (inactive) | –
CC(=O)OCC1OC(n2c(-c3ccccc3)c(/N=N/c3ccccc3)c(C)c(C#N)c2=S)C(OC(C)=O)C(OC(C)=O)C1OC(C)=O (stereo not drawn) | – | – | > 100 µM (inactive) | > 100 µM (inactive) | > 100 µM (inactive) | > 100 µM (inactive) | > 100 µM (inactive) | > 100 µM (inactive) | > 100 µM (inactive) | > 100 µM (inactive) | > 100 µM (inactive) | > 100 µM (inactive) | > 100 µM (inactive) | > 100 µM (inactive) | > 100 µM (inactive) | > 100 µM (inactive) | – | > 100 µM (inactive) | – | > 100 µM (inactive)
NNC(=O)Cn1c2ccc(Br)cc2c2nc3ccccc3nc21 | > 100 µM (inactive) | 47.1 µM (inactive) | 69.3 µM (inactive) | > 100 µM (inactive) | > 100 µM (inactive) | 23.2 µM (inactive) | – | – | 21.8 µM (inactive) | > 100 µM (inactive) | > 100 µM (inactive) | > 100 µM (inactive) | – | > 100 µM (inactive) | – | 43.7 µM (inactive) | – | – | 54.3 µM (inactive) | > 100 µM (inactive)
CCN(CC)c1ccc2cc(C(=O)Nc3ccccc3)c(=N)oc2c1 | > 100 µM (inactive) | – | > 100 µM (inactive) | > 100 µM (inactive) | > 100 µM (inactive) | > 100 µM (inactive) | > 100 µM (inactive) | > 100 µM (inactive) | > 100 µM (inactive) | > 100 µM (inactive) | > 100 µM (inactive) | > 100 µM (inactive) | > 100 µM (inactive) | > 100 µM (inactive) | > 100 µM (inactive) | > 100 µM (inactive) | – | > 100 µM (inactive) | > 100 µM (inactive) | > 100 µM (inactive)
